Measurements reported in US4591589A, “2-aryl pyrazolo[4,3-c]cinnolin-3-ones” (Roussel Uclaf, priority 1985, dated 1986).
Counter-ions that a name gives are not always drawn.

Key:
[1] = tested on: mice; test: Plate test in mice (electric shocks); type: in vivo; conditions: for anxiety reducing activity (plate test): conclusion in words, mice (Example 1 also rats)
Procedure: (§1) The apparatus (Apelab) and the method used are described by BOISSER et al [European J. Pharmacol., 1968, Vol. 4, p. 145]. The plates were linked to a stimulator (U. Sachs, Roucaire) which enabled electric shocks of 120 volts to be delivered during 0.5 seconds. The tests were carried out on groups of 10 mice or rats half an hour after oral administration of the compound studied and each animal has put individually on the apparatus. After 15 seconds of free exploration, it was submitted to an electric shock each time it passed from one plate to another, a minimum of 3 seconds being observed between two shocks. The number of shocks delivered was counted over 1 minute and the results obtained were compared to those observed in the control animals in a test by Dunnett.

[2] = tested on: rats; test: Staircase test; type: in vivo; conditions: 20 mg/kg; 1 hour after administration; counted for 3 minutes
Procedure: The apparatus and the method used are described by THIEBOT et al [Psychol-pharmacologia (Berlin), 1973, Vol. 31, p. 77]. The experiment was carried out on groups of 15 inexperienced rats and the animals were put individually in the enclosure 1 hour after administration of the compound studied. The number of straightenings up and the number of steps claimed were counted for 3 minutes.

[3] = tested on: mice; test: Acute toxicity (lethal dose LD0); type: in vivo; conditions: oral
Procedure: The lethal dose LD0 of the compound of Example 1 was evaluated after administration orally in mice. The maximum dose not causing any mortality in 8 days was called the LD0.

[4] = tested on: rats; test: Plate test in rats (electric shocks); type: in vivo; conditions: oral, 20 mg/kg, half an hour after administration, vs control
Procedure: as §1

[5] = biological target: benzodiazepine receptors; test: Affinity for benzodiazepine receptors (displacement of 3H diazepam, rat brain cortex homogenate); type: binding; conditions: rat brain cortices; 3H diazepam 10^-9 M, 30 minutes at 0° C., pH 7.4; read-out: Cl 50 (concentration inhibiting by 50% the specific bonding of 3H diazepam)
Procedure: The cortices removed from the brains of male rats weighing an average of 150 g were homogenized to one twentieth part (weight/volume) in 0.32M sucrose. After centrifuging the homogenate at 1000 g for 10 minutes at 0° C., the supernatant layer was centrifuged at 30,000 g for 20 minutes at +4° C. The residue was suspended in 20 volumes of Tris HCl 50 mM buffer with a pH of 7.4 and centrifuged at 30,000 g for 20 minutes at +4° C. The new residue obtained was suspended in 50 ml of Krebs Tris HCl buffer, pH 7.4.
2 ml of this suspension in the presence of ^3 H diazepam at a concentration of 10^-9 M was incubated for 30 minutes at 0° C., alone, and with increasing concentrations of the product under test, or to determine the non-specific fixation, with non-radio-active diazepam at a concentration of 10^-6 M. The incubated suspensions were filtered on Whatman GF/C and the filters were washed twice with 5 ml of Krebs Tris HCl buffer, pH 7.4, at 0° C. The radioactivity of the filters was measured by liquid scintillation. The activity of the product was expressed by CI 50: concentration inhibiting by 50% the specific bonding of ^3 H diazepam, determined graphically.

Structure (SMILES)	LD0 (maximum dose not causing any mortality in 8 days) [3]	IC50 [5]	other results
O=c1c2n[nH]c3ccc(Cl)cc3c-2nn1-c1ccccc1 [Example 1, 8-chloro-2,5-dihydro-2-phenyl-3H-pyrazolo[4,3-c]cinnolin-3-one]	> 400		increase in number of shocks delivered ([1]; mice, oral, 20 mg/kg, half an hour after administration, vs control): 63%; decrease in number of straightenings up [2]: 46%; increase in number of shocks delivered [4]: 41%
O=c1c2n[nH]c3ccccc3c-2nn1-c1ccc(Cl)cc1 [Example 2, 2-(4-chlorophenyl)-2,5-dihydro-3H-pyrazolo[4,3-c]cinnolin-3-one]		3.7 nM	
O=c1c2n[nH]c3ccccc3c-2nn1-c1ccccc1 [Example 3, 2,5-dihydro-2-phenyl-3H-pyrazolo[4,3-c]cinnolin-3-one]	> 200	0.9 nM	anxiety reducing activity (plate test) [1]: good anxiety reducing activity; increase in number of shocks ([1]; mice, oral, 50 mg/kg, half an hour after administration, vs control): 50%
COc1ccc(-n2nc3c4ccccc4[nH]nc-3c2=O)cc1 [Example 4, 2,5-dihydro-2-(4-methoxyphenyl)-3H-pyrazolo[4,3-c]cinnolin-3-one]	> 400	2.5 nM	
O=c1c2n[nH]c3ccccc3c-2nn1-c1ccc(OCc2ccccc2)cc1 [Example 5, 2,5-dihydro-2-(4-benzyloxyphenyl)-3H-pyrazolo[4,3-c]cinnolin-3-one]	> 400	18 nM	
O=c1c2n[nH]c3ccccc3c-2nn1-c1cccc(C(F)(F)F)c1 [Example 6, 2,5-dihydro-2-(3-trifluoromethylphenyl)-3H-pyrazolo[4,3-c]cinnolin-3-one]	> 400		
Cc1ccccc1-n1nc2c3ccccc3[nH]nc-2c1=O [Example 7, 2,5-dihydro-2-(2-methylphenyl)-3H-pyrazolo[4,3-c]cinnolin-3-one]	200		
Cl.O=c1c2n[nH]c3ccccc3c-2nn1-c1ccccn1 [Example 8, 2,5-dihydro-(2-pyridin-2-yl)-3H-pyrazolo[4,3-c]cinnolin-3-one hydrochloride]	> 400	3.1 nM	anxiety reducing activity (plate test) [1]: good anxiety reducing activity; increase in number of shocks ([1]; mice, oral, 100 mg/kg, half an hour after administration, vs control): 50%
O=c1c2n[nH]c3ccccc3c-2nn1-c1nccs1 [Example 9, 2,5-dihydro-(2-thiazol-2-yl)-3H-pyrazolo[4,3-c]cinnolin-3-one hydrochloride]		3.1 nM	
O=c1c2n[nH]c3ccccc3c-2nn1C1=NCCS1 [Example 10, 2,5-dihydro-(2-dihydrothiazol-2-yl)-3H-pyrazolo[4,3-c]cinnolin-3-one hydrochloride]	> 400		
